The results in this text go back to ChEMBL document CHEMBL3351912, “Influence of azide incorporation on binding affinity by small papain inhibitors” (Bioorg Med Chem, 2014).

This assay has as its target T1, Papain (Carica papaya, UniProt P00784).
T1 sequence (P00784 whole entry): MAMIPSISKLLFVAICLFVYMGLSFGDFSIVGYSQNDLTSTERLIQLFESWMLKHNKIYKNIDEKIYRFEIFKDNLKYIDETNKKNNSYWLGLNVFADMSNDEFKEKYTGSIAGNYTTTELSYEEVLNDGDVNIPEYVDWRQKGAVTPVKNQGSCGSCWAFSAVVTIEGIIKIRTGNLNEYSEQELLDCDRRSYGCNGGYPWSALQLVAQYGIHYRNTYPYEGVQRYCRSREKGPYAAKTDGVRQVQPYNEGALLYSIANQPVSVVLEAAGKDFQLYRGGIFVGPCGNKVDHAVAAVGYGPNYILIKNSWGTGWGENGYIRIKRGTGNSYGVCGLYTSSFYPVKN
Description: Inhibition of papaya papain using Z-Phe-Arg-pNA substrate by spectrophotometry.
In the case of `CCCC[C@H](NC(=O)c1ccc(CN=[N+]=[N-])cc1)C(=O)NCC#N`, the IC50 turned out to be 7100 nM.

For the molecule `N#CCNC(=O)[C@H](Cc1ccccc1)NC(=O)c1ccc(-c2ccc(CN=[N+]=[N-])cc2)cc1`, the IC50 is 13900 nM.

Regarding `N#CCNC(=O)[C@H](Cc1ccc(O)cc1)NC(=O)c1ccc(CN=[N+]=[N-])cc1`, the IC50 is 280 nM.

In the case of `N#CCNC(=O)[C@H](Cc1ccc(O)cc1)NC(=O)c1ccc(-c2ccc(CN=[N+]=[N-])cc2)cc1`, half-maximal inhibition (IC50) required 51200 nM.

Take `CC(C)C[C@H](NC(=O)c1ccc(CN=[N+]=[N-])cc1)C(=O)NCC#N`: the IC50 was 2270 nM.

For `N#CCNC(=O)[C@H](Cc1ccccc1)NC(=O)c1ccc(Cn2nnc3c2CC[C@H]2[C@@H](CC3)[C@H]2COC(=O)NCCOCCOCCN)cc1`, the IC50 amounted to 350 nM.

As for `N#CCNC(=O)[C@H](Cc1ccccc1)NC(=O)c1ccc(-c2ccccc2)cc1`, the IC50 came to 220 nM.

Regarding `N#CCNC(=O)[C@H](CCc1ccccc1)NC(=O)c1ccc(CN=[N+]=[N-])cc1`, it took 710 nM to reach half-maximal inhibition (IC50).

In turn, `CC(C)C[C@H](NC(=O)CN=[N+]=[N-])C(=O)N[C@@H](Cc1ccccc1)C(=O)NCC#N` came in with an IC50 of 2250 nM.

Take `CC(C)C[C@H](NC(=O)c1ccc(-c2ccc(CN=[N+]=[N-])cc2)cc1)C(=O)NCC#N`: the IC50 amounted to 1580 nM.

As to `N#CCNC(=O)[C@H](Cc1ccccc1)NC(=O)c1ccc(CN=[N+]=[N-])cc1`, the IC50 was found to be 270 nM.

As to `N#CCNC(=O)[C@H](Cc1ccccc1)NC(=O)c1ccccc1`, the IC50 worked out at 360 nM.

`CC(C)C[C@H](NC(=O)CN=[N+]=[N-])C(=O)N[C@@H](CC(C)C)C(=O)NCC#N` showed an IC50 of 2710 nM.

`N#CCNC(=O)[C@H](CCc1ccc(O)cc1)NC(=O)c1ccc(CN=[N+]=[N-])cc1`: inhibition was half-maximal at 980 nM (IC50).

`N#CCNC(=O)[C@H](Cc1ccccc1)NC(=O)c1ccc(Cn2nnc3c2-c2ccccc2CN(C(=O)CCCC(=O)NCCOCCOCCN)c2ccccc2-3)cc1` had an IC50 of 5980 nM.

Take `N#CCNC(=O)[C@H](Cc1ccccc1)NC(=O)[C@H](Cc1ccccc1)NC(=O)CN=[N+]=[N-]`: half-maximal inhibition (IC50) required 3970 nM.

In general, IC50 refers to the concentration needed to halve the response being measured. Low readings indicate inhibition by little substance, high ones a need for much substance.
